Results: patent publication US5994334A, “Androgen synthesis inhibitors” (priority 1997, dated 1999)
Like-named read-outs stand apart in the source and are kept apart here.

Assays:
[1] = target: T1, human 17α-hydroxylase/C17,20-lyase (Homo sapiens, UniProt P05093); assay: Inhibition of human testicular 17α-hydroxylase/C17,20-lyase (enzyme complex as a whole); assay type: biochemical; details: NI = no inhibition
T1 construct: incubating human testicular microsomes; from tissue; host or cells: human testis, microsomes
T1 sequence (P05093 1-508): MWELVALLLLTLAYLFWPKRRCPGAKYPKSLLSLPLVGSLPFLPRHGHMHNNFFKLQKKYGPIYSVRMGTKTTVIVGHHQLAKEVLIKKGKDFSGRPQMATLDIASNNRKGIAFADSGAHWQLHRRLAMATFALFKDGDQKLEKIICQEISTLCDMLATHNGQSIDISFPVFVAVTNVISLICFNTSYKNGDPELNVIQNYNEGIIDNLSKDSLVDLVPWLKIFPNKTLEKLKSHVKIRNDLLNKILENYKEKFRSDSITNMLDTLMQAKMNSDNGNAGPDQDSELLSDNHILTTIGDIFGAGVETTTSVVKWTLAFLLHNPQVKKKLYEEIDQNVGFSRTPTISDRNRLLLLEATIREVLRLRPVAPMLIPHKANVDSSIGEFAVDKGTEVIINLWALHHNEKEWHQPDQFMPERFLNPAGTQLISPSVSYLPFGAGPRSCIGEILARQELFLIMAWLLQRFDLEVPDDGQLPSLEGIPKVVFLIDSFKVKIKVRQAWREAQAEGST
Experimental: (§1) The conversion of radiolabeled pregnenolone to 17α-hydroxypregnenolone and DHEA by 17α-hydroxylase/C17,20 -lyase was measured by incubating human testicular microsomes with different concentration of test compounds. Reverse phase HPLC was used to separate and accurately quantify the amount of substrate and metabolites. The 17α-hydroxylase and C17,20 -lyase activities were calculated separately. The activity of 17α-hydroxylase was calculated from the conversion of pregnenolone to 17α-hydroxypregnenolone and DHEA and the activity of C17,20 -lyase was based on the conversion of pregnenolone to DHEA. Although 17α-hydroxypregnenolone is the substrate converted to DHEA by C17,20 -lyase, it has been reported that this 17α-hydroxy intermediate is not released from the enzyme binding site during conversion (Nakajin et al., 1981a,b). Also, there are species differences in substrate requirements. Pregnenolone is the natural substrate rather than progesterone for human testicular 17α-hydroxylase and C17,20 -lyase. Therefore, pregnenolone was used as substrate for measuring the activity of this enzyme complex.

[2] = target: T2, Human Testicular 17α-Hydroxylase (Homo sapiens, UniProt P05093); assay: Inhibition of human testicular 17α-hydroxylase (pregnenolone substrate, testicular microsomes); assay type: biochemical; details: for inhibition at 0.1 µM: read-out: % Inhibition 17α-hydroxylase, [I] = 100 nM; for inhibition at 0.4 µM: read-out: % Inhibition 17α-hydroxylase, [I] = 400 nM
T2 construct: incubating human testicular microsomes; from tissue; host or cells: human testis, microsomes
T2 sequence (P05093 1-508): T1 sequence (P05093 1-508)
Experimental: as §1

[3] = target: T3, Human Testicular C17,20-lyase (Homo sapiens, UniProt P05093); assay: Inhibition of human testicular C17,20-lyase (pregnenolone substrate, testicular microsomes); assay type: biochemical; details: for inhibition at 0.1 µM: read-out: % Inhibition C17,20-lyase, [I] = 100 nM; for inhibition at 0.4 µM: read-out: % Inhibition C17,20-lyase, [I] = 400 nM
T3 construct: incubating human testicular microsomes; from tissue; host or cells: human testis, microsomes
T3 sequence (P05093 1-508): T1 sequence (P05093 1-508)
Experimental: as §1

[4] = target: T4, Human Prostatic 5α-Reductase (Homo sapiens, UniProt P31213); assay: Inhibition of human prostatic 5α-reductase (prostatic microsomes, [3H]testosterone); details: for inhibition at 0.01 µM: read-out: % Inhibition of 5α-reductase, [I] 10 nM; for inhibition at 0.1 µM: read-out: % Inhibition of 5α-reductase, [I] 100 nM; for inhibition at 0.4 µM: read-out: % Inhibition of 5α-reductase, [I] 400 nM
T4 sequence (P31213 1-254): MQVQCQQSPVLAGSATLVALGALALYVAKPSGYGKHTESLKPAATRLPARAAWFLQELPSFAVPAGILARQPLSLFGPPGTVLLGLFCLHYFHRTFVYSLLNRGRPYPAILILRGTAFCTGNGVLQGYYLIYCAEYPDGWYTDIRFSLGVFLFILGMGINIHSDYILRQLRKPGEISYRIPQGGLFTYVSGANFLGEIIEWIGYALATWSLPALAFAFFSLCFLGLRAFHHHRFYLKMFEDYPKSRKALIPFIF
Experimental: The 5α-reductase assay is performed by incubating human prostatic microsomes (approx. 0.6 mg protein in 0.5 ml phosphate buffer) with [7-^3 H]testosterone (10 mM. 6×10^5 dpm) with a NADPH generating system (NADP 0.65 mM; glucose-6-phosphate 7.1 mM; glucose-6-phosphate dehydrogenase 2.5 IU in 100 μl phosphate buffer) and candidate inhibitors at concentrations of 10 nM and 100 nM under oxygen for 30 min at 37° C. […] The steroids are extracted with ether and separated by chromatography on TLC (chloroform:ether 80:20). […] The steroids are scraped from the plate and radioactivity measured.

[5] = Table 1, NI = no inhibition, read-out: IC50 17α-OHase
[6] = Table 1, NI = no inhibition, CI = complete inhibition, read-out: IC50 C17,20 lyase
[7] = first figure of pair, read-out: IC50 17α-hydroxylase
[8] = second figure of pair, read-out: IC50 C17,20-lyase

Compound | inhibition of 17α-hydroxylase/C17,20-lyase (in words) [1] | IC50 [2, 5] | IC50 [3, 6] | inhibition at 0.1 µM [4] | other results
CC(=NO)[C@H]1CC[C@H]2[C@@H]3CC=C4C[C@@H](O)CC[C@]4(C)[C@H]3CC[C@]12C [Compound I-1] | potent inhibition | – | – | – | –
C[C@@H](N)[C@H]1CC[C@H]2[C@@H]3CC=C4C[C@@H](O)CC[C@]4(C)[C@H]3CC[C@]12C [Compound I-9] | poor inhibition | 89800 nM | 43900 nM | – | –
C[C@H](N)[C@H]1CC[C@H]2[C@@H]3CC=C4C[C@@H](O)CC[C@]4(C)[C@H]3CC[C@]12C [Compound I-10] | poor inhibition | 9800 nM | 8000 nM | – | –
CC(=O)[C@@]1(Br)CC[C@H]2[C@@H]3CC=C4C[C@@H](O)CC[C@]4(C)[C@H]3CC[C@@]21C [Compound I-11] | poor inhibition | 1300 nM | 970 nM | – | –
CC(=NN)[C@H]1CC[C@H]2[C@@H]3CC=C4C[C@@H](O)CC[C@]4(C)[C@H]3CC[C@]12C [Compound I-12] | poor inhibition | – | – | – | –
CC(=NN(C)C)C1=CC[C@H]2[C@@H]3CC=C4C[C@@H](O)CC[C@]4(C)[C@H]3CC[C@]12C [Compound I-14] | devoid of inhibitory activity | – | – | – | –
C[C@H](C=NN(C)C)[C@H]1CC[C@H]2[C@@H]3CCC4=CC(=O)CC[C@]4(C)[C@H]3CC[C@]12C [Compound I-15] | devoid of inhibitory activity | – | – | 74.9% | inhibition at 0.01 µM [4]: 16.4%
CC(=O)[C@@]12O[C@@H]1C[C@H]1[C@@H]3CC=C4C[C@@H](O)CC[C@]4(C)[C@H]3CC[C@@]12C [Compound I-17] | decreased potency | 440 nM | 680 nM | – | –
CC(=O)[C@@]12O[C@@H]1C[C@H]1[C@@H]3CCC4=CC(=O)CC[C@]4(C)[C@H]3CC[C@@]12C [Compound I-18] | – | 480 nM | 800 nM | 76.2% | inhibition at 0.01 µM [4]: 15.1%
C[C@H](O)[C@H]1CC[C@H]2[C@@H]3CC=C4C[C@@H](O)CC[C@]4(C)[C@H]3CC[C@]12C [Compound I-19] | – | – | – | – | IC50 ([2]; IC50 17α-OHase): 720 nM; IC50 ([3]; IC50 C17,20 lyase): 510 nM; inhibition of 5α-reductase (in words) ([4]; NI = no inhibition): neither showed activity against 5α-reductase
CC(C#N)=C1CC[C@H]2[C@@H]3CCC4=CC(=O)CC[C@]4(C)[C@H]3CC[C@]12C [Compound I-26] | did not contribute to inhibition | – | – | 71.8% | inhibition at 0.01 µM [4]: 5.21%
C[C@H](C=O)[C@H]1CC[C@H]2[C@@H]3CC=C4C[C@@H](O)CC[C@]4(C)[C@H]3CC[C@]12C [Compound I-31] | – | 80 nM | 80 nM | – | –
C[C@H](C#N)[C@H]1CC[C@H]2[C@@H]3CCC4=CC(=O)CC[C@]4(C)[C@H]3CC[C@]12C [Compound I-32] | – | – | – | 79.2% | inhibition at 0.01 µM [4]: 21%
CC(=O)O[C@H]1CC[C@@]2(C)C(=CC[C@@H]3[C@@H]2CC[C@]2(C)C(C(C)=O)=CC[C@@H]32)C1 [Compound I-37] | less activity than the 3-hydroxy compound | – | – | – | IC50 ([2]; read-out: IC50 17α-OHase): 1890 nM; IC50 ([3]; read-out: IC50 C17,20 lyase): 1710 nM
CN(C=O)[C@H]1CC[C@H]2[C@@H]3CC=C4C[C@@H](O)CC[C@]4(C)[C@H]3CC[C@]12C [Compound I-39] | – | 290 nM | 280 nM | – | –
C[C@]12CCC(=O)C=C1CC[C@@H]1[C@@H]2CC[C@@]2(C)[C@H]1CC[C@]2(O)c1c[nH]cn1 [Compound I-44] | – | 1200 nM | 1000 nM | – | IC50 [2, 7]: 1200 nM; IC50 [3, 8]: 1000 nM
C[C@]12CC[C@H](O)CC1=CC[C@@H]1[C@@H]2CC[C@@]2(C)[C@H]1C[C@H]1O[C@]12c1c[nH]cn1 [Compound I-51] | – | 430 nM | 100 nM | – | IC50 [2, 7]: 431 nM; IC50 [3, 8]: 98 nM
CCOC(=O)C1=CC[C@H]2[C@@H]3CC=C4C[C@@H](O)CC[C@]4(C)[C@H]3CC[C@]12C [Compound I-53] | – | 3040 nM | 2450 nM | – | –
CN(C)N=C1CC[C@H]2[C@@H]3CC=C4C[C@@H](O)CC[C@]4(C)[C@H]3CC[C@]12C [Compound I-56] | – | 4200 nM | 2400 nM | – | –
C[C@]12CC[C@H]3[C@@H](CCC4=CC(=O)CC[C@@]43C)[C@@H]1CC[C@@H]2c1ncc[nH]1 [Compound L-3] | – | – | – | 31.7% | inhibition at 0.1 µM ([2]; 100 nM, first figure of pair): 20.3%; inhibition at 0.4 µM ([2]; 400 nM, first figure of pair): 43.5%; inhibition at 0.1 µM ([3]; 100 nM, second figure of pair): 62.9%; inhibition at 0.4 µM ([3]; 400 nM, second figure of pair): 100%; inhibition at 0.4 µM [4]: 61.7%
C[C@]12CC[C@H]3[C@@H](CC=C4C[C@@H](O)CC[C@@]43C)[C@@H]1CC[C@@H]2c1c[nH]c(-c2ccccc2)n1 [Compound L-7] | – | – | – | – | inhibition at 0.1 µM ([2]; 100 nM, first figure of pair): 10.3%; inhibition at 0.4 µM ([2]; 400 nM, first figure of pair): 20.9%; inhibition at 0.1 µM ([3]; 100 nM, second figure of pair): 9.5%; inhibition at 0.4 µM ([3]; 400 nM, second figure of pair): 33.8%
C[C@H](O)C1=CC[C@H]2[C@@H]3CC=C4C[C@@H](O)CC[C@]4(C)[C@H]3CC[C@]12C [Compound L-9] | less active | – | – | – | inhibition at 0.01 µM [4]: 33.2%
C=C1CC2C3CCC(OC(C)=O)C3(C)CCC2C2(C)CCC(=O)CC12 [Compound L-14, 17β-Acetoxy-6-methylene-5α-androst-3-one] | – | – | – | 5.77% | inhibition at 0.4 µM [4]: 11.4%
C[C@]12CC[C@H]3[C@@H](CC[C@]45CC(=O)C=C[C@]34C5)[C@@H]1CCC2=O [Compound L-15, 5,19β-cycloandrost-1-ene-3,17-dione] | – | – | – | 23.3% | inhibition at 0.1 µM ([2]; 100 nM, first figure of pair): 7.25%; inhibition at 0.1 µM ([3]; 100 nM, second figure of pair): 28.8%; inhibition at 0.4 µM [4]: 60.9%
C[C@]12CC[C@H]3[C@@H](CC[C@]45CC(=O)CC[C@]34[C@H]5O)[C@@H]1CC[C@@H]2O [Compound L-19, 17β,19(S)-dihydroxy 5,19β-cycloandrost-3-one] | – | – | – | 8.7% | inhibition at 0.4 µM [4]: 14.8%
C[C@]12CC[C@H]3[C@@H](CC[C@]45CC(=O)CC[C@]34[C@@H]5O)[C@@H]1CCC2=O [Compound L-20, 19(R)-Hydroxy-5,19β-cyclo-androst-3,17-dione] | – | – | – | 5.89% | inhibition at 0.4 µM [4]: 12.2%
CC1N[C@@]12CC[C@H]1[C@@H]3CC=C4C[C@@H](O)CC[C@]4(C)[C@H]3CC[C@@]12C (stereo partly drawn) [Compound L-21] | – | – | – | – | inhibition at 0.1 µM [2]: 8.47%; inhibition at 0.4 µM [2]: 23.7%; inhibition at 0.1 µM [3]: 29.1%; inhibition at 0.4 µM [3]: 52%
CC1N[C@]12CC[C@H]1[C@@H]3CC=C4C[C@@H](O)CC[C@]4(C)[C@H]3CC[C@@]12C (stereo partly drawn) [Compound L-22] | – | – | – | – | inhibition at 0.1 µM [2]: 0%; inhibition at 0.4 µM [2]: 0%; inhibition at 0.1 µM [3]: 3.33%; inhibition at 0.4 µM [3]: 9.99%
CO[C@@H]1[C@]23CC[C@@H]4[C@H](CC[C@]5(C)C(=O)CC[C@@H]45)[C@]12CCC(=O)[C@H]3C [Compound L-23, 4α-methyl-19-(S)-methoxy-5,19β-cycloandrost-3,17-dione] | – | – | – | 0% | inhibition at 0.4 µM [4]: 16.1%
C[C@]12CC[C@H]3[C@@H](CCC4=CC(=O)CC[C@@]43CBr)[C@@H]1CCC2=O [Compound L-24, 19-Bromo-androst-4-ene-3,17-dione] | – | – | – | 12.3% | inhibition at 0.4 µM [4]: 52.7%
